Data on 67 molecules can be found in patent US9505781B2, “Compositions comprising thienopyrimidine and thienopyridine compounds and methods of use thereof” (The Regents of the University of Michigan, priority 2013, dated 2016).

Each structure is given as a SMILES string.

The target of the assay is T1, menin-MLL interaction (Homo sapiens, UniProt O00255).
T1 sequence (O00255 1-610): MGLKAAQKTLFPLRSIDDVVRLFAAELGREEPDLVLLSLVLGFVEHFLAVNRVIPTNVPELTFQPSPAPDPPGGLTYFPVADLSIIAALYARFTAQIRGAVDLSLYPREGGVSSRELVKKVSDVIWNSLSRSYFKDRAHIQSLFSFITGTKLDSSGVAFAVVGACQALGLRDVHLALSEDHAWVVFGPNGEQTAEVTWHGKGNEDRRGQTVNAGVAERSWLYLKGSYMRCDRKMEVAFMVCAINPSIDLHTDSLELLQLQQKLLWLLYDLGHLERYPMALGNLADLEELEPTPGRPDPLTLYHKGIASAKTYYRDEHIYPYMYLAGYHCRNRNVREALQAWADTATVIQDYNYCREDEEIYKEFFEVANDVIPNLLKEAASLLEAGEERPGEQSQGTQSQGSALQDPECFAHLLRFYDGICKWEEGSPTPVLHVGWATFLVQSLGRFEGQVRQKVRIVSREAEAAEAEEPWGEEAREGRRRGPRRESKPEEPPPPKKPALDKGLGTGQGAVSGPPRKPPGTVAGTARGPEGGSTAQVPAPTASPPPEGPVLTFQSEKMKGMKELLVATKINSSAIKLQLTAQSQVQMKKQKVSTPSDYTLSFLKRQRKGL
The assay can be described thus: biochemical.
Source text: Compounds that inhibit the interaction decrease the fluorescence anisotropy which is being used as a read-out for compound screening and for IC50 determination.
What is called IC50 is the concentration needed to halve the response being measured. In turn, `N#C[C@H]1C[C@@H]1c1ccc(CN2CCC(Nc3ncnc4sc(CC(F)(F)F)cc34)CC2)cc1` [Compound 106] displayed an IC50 of under 100 nM.
As to `OCc1cc(O)ccc1CN1CCC(Nc2ncnc3sc(CC(F)(F)F)cc23)CC1` [Compound 107], the IC50 was in the range of 100 to 500 nM.
The molecule `Oc1cccc(CN2CCC(Nc3ncnc4sc(CC(F)(F)F)cc34)CC2)c1` [Compound 109] yielded an IC50 of 100 to 500 nM.
Turning to `OCc1ccccc1CN1CCC(Nc2ncnc3sc(CC(F)(F)F)cc23)CC1` [Compound 110], the IC50 fell in the range of 100 to 500 nM.
Then `Oc1cccc(O)c1CN1CCC(Nc2ncnc3sc(CC(F)(F)F)cc23)CC1` [Compound 111], with 100 to 500 nM; and `OCc1c(CC(F)(F)F)sc2ncnc(NC3CCN(Cc4ccccc4)CC3)c12` [Compound 112], with 100 to 500 nM; and `Nc1ccccc1CN1CCC(Nc2ncnc3sc(CC(F)(F)F)cc23)CC1` [Compound 113], with 100 to 500 nM.
`Oc1ccccc1CN1CCC(Nc2ncnc3sc(CC(F)(F)F)cc23)CC1` [Compound 114]: the IC50 was in the range of 100 to 500 nM.
On to `FC(F)(F)Cc1cc2c(NC3CCN(Cc4ccc(N5CCOCC5)cc4Cl)CC3)ncnc2s1` [Compound 115], for which the IC50 is 100 to 500 nM.
Consider `FC(F)(F)Cc1cc2c(NC3CCN(Cc4ccc(CN5CCCCC5)cc4)CC3)ncnc2s1` [Compound 116], for which the IC50 was in the range of 100 to 500 nM.
For the molecule `Cc1ccccc1CN1CCC(Nc2ncnc3sc(CC(F)(F)F)cc23)CC1` [Compound 117], the IC50 lay in the range of 100 to 500 nM.
Molecule `CCc1ccc(CN2CCC(Nc3ncnc4sc(CC(F)(F)F)cc34)CC2)cc1` [Compound 118] had an IC50 of 100 to 500 nM.
Consider `FC(F)(F)Cc1cc2c(NC3CCN(Cc4ccccc4Cl)CC3)ncnc2s1` [Compound 119], for which the IC50 fell in the range of 100 to 500 nM.
In turn, `Cc1ccc(CN2CCC(Nc3ncnc4sc(CC(F)(F)F)cc34)CC2)c(C)c1` [Compound 120] gave a 50% inhibitory concentration (IC50) of 100 to 500 nM.
In turn, `NCc1ccccc1CN1CCC(Nc2ncnc3sc(CC(F)(F)F)cc23)CC1` [Compound 121] had an IC50 of 100 to 500 nM.
In turn, `Fc1ccc(CN2CCC(Nc3ncnc4sc(CC(F)(F)F)cc34)CC2)c(F)c1` [Compound 122] showed an IC50 of 100 to 500 nM.
Molecule `NN(c1ncnc2sc(CC(F)(F)F)cc12)C1CCN(Cc2ccccc2)CC1` [Compound 123] returned an IC50 of 100 to 500 nM.
Then `FC(F)(F)Cc1cc2c(N(NCc3ccccc3)C3CCN(Cc4ccccc4)CC3)ncnc2s1` [Compound 124], with 100 to 500 nM; and `OCCNN(c1ncnc2sc(CC(F)(F)F)cc12)C1CCN(Cc2ccccc2)CC1` [Compound 125], with 100 to 500 nM.
`Cc1c(CC(F)(F)F)sc2ncnc(NC3CCN(Cc4ccccc4)CC3)c12` [Compound 126] came in with an IC50 of 100 to 500 nM.
As for `OCCCN(c1ncnc2sc(CC(F)(F)F)cc12)C1CCN(Cc2ccccc2)CC1` [Compound 127], the figure is 100 to 500 nM; as for `OCC(O)CN(c1ncnc2sc(CC(F)(F)F)cc12)C1CCN(Cc2ccccc2)CC1` (stereo not shown) [Compound 128], 100 to 500 nM; as for `OCCN(c1ncnc2sc(CC(F)(F)F)cc12)C1CCN(Cc2ccccc2)CC1` [Compound 129], 100 to 500 nM.
Regarding `CC(=O)Nc1ccc(CN2CCC(Nc3ncnc4sc(CC(F)(F)F)cc34)CC2)cc1` [Compound 130], the IC50 is 100 to 500 nM.
Then `FC(F)(F)Cc1cc2c(NC3CCN(Cc4ccc[nH]4)CC3)ncnc2s1` [Compound 131], with 100 to 500 nM; and `FC(F)(F)Cc1cc2c(NC3CCN(Cc4cccs4)CC3)ncnc2s1` [Compound 132], with 100 to 500 nM; and `FC(F)(F)Cc1cc2c(NC3CCN(Cc4ccsc4)CC3)ncnc2s1` [Compound 133], with 100 to 500 nM.
For `FC(F)(F)Cc1cc2c(NC3CCN(Cc4cc[nH]c4)CC3)ncnc2s1` [Compound 134], the IC50 was 100 to 500 nM.
As for `FC(F)(F)Cc1cc2c(N[C@@H]3[C@@H]4CC[C@H]3CN(Cc3ccccc3)C4)ncnc2s1` [Compound 135], the figure is 100 to 500 nM; as for `O=C1CCc2cc(CN3CCC(Nc4ncnc5sc(CC(F)(F)F)cc45)CC3)ccc2N1` [Compound 136], 500 to 2000 nM.
As to `NCc1ccc(CN2CCC(Nc3ncnc4sc(CC(F)(F)F)cc34)CC2)cc1` [Compound 137], the IC50 was in the range of 500 to 2000 nM.
Then `OCCC(F)(F)Cc1cc2c(NC3CCN(Cc4ccccc4)CC3)ncnc2s1` [Compound 138], with 500 to 2000 nM; and `Nc1ccc(CN2CCC(Nc3ncnc4sc(CC(F)(F)F)cc34)CC2)cc1` [Compound 139], with 500 to 2000 nM; and `OCc1ccc(CN2CCC(Nc3ncnc4sc(CC(F)(F)F)cc34)CC2)cc1` [Compound 140], with 500 to 2000 nM.
`FC(F)Oc1ccc(CN2CCC(Nc3ncnc4sc(CC(F)(F)F)cc34)CC2)cc1` [Compound 141]: the IC50 was 500 to 2000 nM.
`NS(=O)(=O)c1ccc(CN2CCC(Nc3ncnc4sc(CC(F)(F)F)cc34)CC2)c(Cl)c1` [Compound 142] showed an IC50 of 500 to 2000 nM.
As to `CN1CCN(Cc2ccc(CN3CCC(Nc4ncnc5sc(CC(F)(F)F)cc45)CC3)cc2)CC1` [Compound 143], the IC50 was 500 to 2000 nM.
For the molecule `N#Cc1ccc(CN2CCC(Nc3ncnc4sc(CC(F)(F)F)cc34)CC2)cc1` [Compound 144], the IC50 lay within 500 to 2000 nM.
`FC(F)(F)Cc1cc2c(NC3CCN(Cc4ccc(N5CCCCC5)cc4)CC3)ncnc2s1` [Compound 145] yielded an IC50 of 500 to 2000 nM.
In turn, `FC(F)(F)Cc1cc2c(NC3CCN(Cc4ccc(C(F)(F)F)cc4)CC3)ncnc2s1` [Compound 146] gave an IC50 of 500 to 2000 nM.
In turn, `Cc1ccc(CN2CCC(Nc3ncnc4sc(CC(F)(F)F)cc34)CC2)cc1` [Compound 147] returned an IC50 of 500 to 2000 nM.
On to `FC(F)(F)Cc1cc2c(NC3CCN(Cc4ccccc4C(F)(F)F)CC3)ncnc2s1` [Compound 148], for which the IC50 is 500 to 2000 nM.
As for `CCCc1cc2c(NC3CCN(Cc4ccccc4)CC3)ncnc2s1` [Compound 149], the figure is 500 to 2000 nM.
As for `CCCc1cc2c(N(C)C3CCN(Cc4ccccc4)CC3)ncnc2s1` [Compound 150], the IC50 lay in the range of 500 to 2000 nM.
Consider `CCCc1cc2c(NC3CCN(Cc4ccc(C)cc4)CC3)ncnc2s1` [Compound 151], for which the half-inhibitory concentration (IC50) fell in the range of 500 to 2000 nM.
Molecule `CCCc1cc2c(NC3CCN(Cc4ccccc4Br)CC3)ncnc2s1` [Compound 152] returned a half-maximal inhibitory concentration (IC50) of 500 to 2000 nM.
Turning to `CCCc1cc2c(NC3CCN(Cc4ccccc4C)CC3)ncnc2s1` [Compound 153], the IC50 was in the range of 500 to 2000 nM.
On to `CCCc1cc2c(NC3CCN(Cc4ccccc4Cl)CC3)ncnc2s1` [Compound 154], for which the IC50 was in the range of 500 to 2000 nM.
As for `Cc1ccccc1CN1CCC(Nc2ncnc3sc(CC(C)(F)F)cc23)CC1` [Compound 155], the IC50 fell in the range of 500 to 2000 nM.
As for `NS(=O)(=O)c1ccc(CN2CCC(Nc3ncnc4sc(CC(F)(F)F)cc34)CC2)cc1` [Compound 156], the figure is 500 to 2000 nM; as for `Nc1cccc(CN2CCC(Nc3ncnc4sc(CC(F)(F)F)cc34)CC2)c1` [Compound 157], 500 to 2000 nM.
Turning to `FC(F)(F)Cc1sc2ncnc3c2c1CNN3C1CCN(Cc2ccccc2)CC1` [Compound 158], the IC50 lay in the range of 500 to 2000 nM.
Then `N#C[C@@H]1C[C@@H]1c1ccc(CN2CCC(Nc3ncnc4sc(CC(F)(F)F)cc34)CC2)cc1` [Compound 159], with 500 to 2000 nM; and `N#Cc1cc2cc(CN3CCC(Nc4ncnc5sc(CC(F)(F)F)cc45)C(N)C3)ccc2[nH]1` (stereo not shown) [Compound 160], with under 100 nM.
`N#Cc1cc2cc(CN3CCC(Nc4ncnc5sc(CC(F)(F)F)cc45)C(NC[C@H]4CCCN4C=O)C3)ccc2[nH]1` (stereo partly shown) [Compound 161]: the IC50 was under 100 nM.
Consider `N#Cc1cc2cc(CN3CCC(Nc4ncnc5sc(CC(F)(F)F)cc45)C(N)C3)ccc2n1CC1CC1` (stereo not shown) [Compound 162], for which the IC50 was under 100 nM.
The molecule `N#Cc1cc2cc(CN3CC[C@H](Nc4ncnc5sc(CC(F)(F)F)cc45)[C@H](CO)C3)ccc2[nH]1` [Compound 163] showed an IC50 of under 100 nM.
For the molecule `N#Cc1cc2cc(CN3CC[C@@H](Nc4ncnc5sc(CC(F)(F)F)cc45)[C@@H](CO)C3)ccc2[nH]1` [Compound 164], the IC50 was under 100 nM.
Consider `N[C@H]1CN(Cc2ccccc2)CC[C@@H]1Nc1ncnc2sc(CC(F)(F)F)cc12` [Compound 166], for which the half-inhibitory concentration (IC50) was 100 to 500 nM.
For `FC(F)(F)Cc1cc2c(N[C@H]3CCN(Cc4ccccc4)C[C@@H]3NCc3ccccc3)ncnc2s1` [Compound 167], the IC50 lay within 100 to 500 nM.
As for `FC(F)(F)Cc1cc2c(N[C@H]3CCN(Cc4ccccc4)C[C@@H]3NCCc3ccccc3)ncnc2s1` [Compound 168], the figure is 100 to 500 nM.
`FC(F)(F)Cc1cc2c(N[C@H]3CCN(Cc4ccccc4)C[C@@H]3NCC3CCCC3)ncnc2s1` [Compound 169] yielded an IC50 of 100 to 500 nM.
`O=CN1CCCC1CN[C@H]1CN(Cc2ccccc2)CC[C@@H]1Nc1ncnc2sc(CC(F)(F)F)cc12` (stereo partly shown) [Compound 170] gave an IC50 of 100 to 500 nM.
`FC(F)(F)Cc1cc2c(N[C@H]3CCN(Cc4ccccc4)C[C@@H]3NCCC3CCCC3)ncnc2s1` [Compound 171] returned a half-inhibitory concentration (IC50) of 100 to 500 nM.
As for `CS(=O)(=O)N1CCC[C@H]1CN[C@H]1CN(Cc2ccccc2)CC[C@@H]1Nc1ncnc2sc(CC(F)(F)F)cc12` [Compound 172], the figure is 100 to 500 nM.
On to `CS(=O)(=O)N1CCC[C@H]1CN[C@@H]1CN(Cc2ccccc2)CC[C@H]1Nc1ncnc2sc(CC(F)(F)F)cc12` [Compound 173], for which the IC50 was in the range of 100 to 500 nM.
As for `FC(F)(F)Cc1cc2c(N[C@H]3CCN(Cc4ccccc4)C[C@@H]3OCc3ccccc3)ccnc2s1` [Compound 174], the figure is 100 to 500 nM.
